Results: publication PMC8012331, “Drug-induced hepatic steatosis in absence of severe mitochondrial dysfunction in HepaRG cells: proof of multiple mechanism-based toxicity” (Cell Biology and Toxicology, 2020)
“Also recorded” adds a separate entry of the source.

Assays:
[1] = test system: primary human hepatocytes (PHH); test: Neutral lipids with Nile red in primary human hepatocytes; assay type: cell-based; details: 4 days
Description: Primary human hepatocytes (PHH) were purchased from Biopredic International (Saint-Grégoire, France). Cells were seeded by the supplier in coated 96-well plates at a density of 5 × 10^4 cells/well. Upon receipt, culture medium was removed and replaced by William’s E medium supplemented as previously described for HepaRG cell differentiation, except for DMSO set at 1%. After 2–3 days, cells were treated as for HepaRG cells. For HepaRG cells and PHH, cells were always maintained in incubators at 37 °C with 5% CO2 and saturating humidity.
Cells were then incubated with PBS containing 0.1 μg/mL Nile red for 30 min and washed once. […] For each well, four pictures were taken at a magnification of × 20 and analyzed with Columbus software (PerkinElmer) for quantification. These pictures were always taken in four different areas around the center of each well, and these areas were the same from one well to another, as programmed by the Columbus software. This software was also designed to count only living cells after exclusion of dying cells harboring nuclei with abnormal shape or altered Hoechst intensity. […] Neutral lipids were then normalized per number of nuclei and expressed relative to control cells. Examples of images used for neutral lipid quantification are shown in Supplementary Fig. 2.

[2] = test system: mitochondrial fatty acid oxidation (mtFAO); test: mtFAO with [U-14C]palmitic acid in HepaRG cells; assay type: cell-based, human; details: 4 days, vs control
Description: Experiments were carried out on passages 9 to 16. […] DPEN was dissolved in water.
Results were normalized to total protein content determined using the Pierce BCA assay kit from Thermo Fischer Scientific (Waltham, MA). Results were expressed in comparison to control cells.

[3] = test system: apoC3 secretion; test: apoC3 level in culture medium (HTRF), HepaRG cells; assay type: cell-based, human; details: 4 days, culture medium, vs control
Description: Briefly, HepaRG cells were seeded in 96-well plates at a density of 2.6 × 10^4 cells/cm^2 and were first incubated in William’s E medium supplemented with 10% FBS (50% FBS from Eurobio and 50% FBS from GE Healthcare), 100 U/mL penicillin, 100 μg/mL streptomycin, 2 mM glutamine, 5 μg/mL insulin, and 50 μM hydrocortisone hemisuccinate. […] During this 1-month period, the culture medium was renewed three times a week. […] HepaRG cells were next cultured in the same FBS/DMSO conditions and incubated for 4 days with each drug at different concentrations. Culture medium was renewed every day and all investigations were performed after 96 h (i.e., 24 h after the fourth treatment). These investigations were mostly performed in 96-well plates except for western blot analysis, for which 6-well plates were used. Experiments were carried out on passages 9 to 16. All drugs (except DPEN), etomoxir, lomitapide, tunicamycin, thapsigargin, and TUDCA were dissolved in DMSO. DPEN was dissolved in water.
Apolipoprotein C3 (apoC3) level was measured using the Human Apolipoprotein C3 kit from Cisbio Bioassays (Codolet, France), according to the manufacturer’s instructions. Briefly, 10 μL of supernatants was incubated with two different specific anti-human apoC3 antibodies, one donor and one acceptor. The detection principle of apoC3 is based on HTRF® (Homogeneous Time Resolved Fluorescence), a time-resolved FRET (Förster Resonance Energy Transfer) technology. After 2 h of incubation, light emission was measured with the Infinite F Nano+ microplate reader (Tecan, Männedorf, Switzerland). ApoC3 level was calculated utilizing standard curve, based on the ratio of A665 nm/A615 nm, and normalized to the total cellular protein content. Results were expressed in comparison to control cells.

[4] = test system: permeabilized HepaRG cells; test: Oxygen consumption in permeabilized HepaRG cells (Seahorse); assay type: cell-based, human; details: for EC20 values for inhibition of O2 consumption, Glutamate + malate / EC20 values for inhibition of O2 consumption, Octanoyl-L-carnitine / EC20 values for inhibition of O2 consumption, Palmitoyl-CoA + L-carnitine / EC20 values for inhibition of O2 consumption, Palmitoyl-L-carnitine: state 3, mean ± SD, 2-3 runs
Description: Cryopreserved differentiated HepaRG cells (HPR116, Biopredic International) were thawed and seeded at 36,000 cells/well in Seahorse XFe96 cell culture microplate (Agilent) in HepaRG® Thawing/Plating/General Purpose Medium Supplement with antibiotics (Biopredic International) combined with 100 mL of William’s Medium E (Sigma) and incubated at 37 °C with 5% CO2. The day after, medium was replaced by HepaRG Maintenance/Metabolism Medium Supplement with antibiotics (Biopredic International) combined with 100 mL of William’s Medium E. […] Two technical replicates were carried out per condition in two to three independent experimental runs.

[5] = Maximum plasma concentration (Cmax) in patients; assay type: in vivo, human; details: worked out from cited Cmax in patients
[6] = test system: phospho-IRE1α (Ser724); test: Western blot phospho-IRE1α in HepaRG cells; assay type: cell-based, human
Description: Cells were lysed in ice-cold CelLytic M buffer (C2978; Sigma Aldrich) containing phosphatase and protease inhibitors from Roche Applied Science (Penzberg, Germany). Protein concentration was determined using the Pierce BCA Protein Assay Kit (Thermo Fisher Scientific) and equal amounts of protein were diluted with NuPAGE LDS Sample Buffer (Thermo Fisher Scientific). Samples (ca. 25 μg of proteins) were then separated by SDS-PAGE using NuPAGE 4–12% Bis-Tris gels (Thermo Fisher Scientific). Proteins were transferred to PVDF membranes (BioRad) and Ponceau S staining was used to confirm equal loading and transfer. Membranes were blocked in 7.5% milk in TBST (10 mM Tris–HCl, 100 mM NaCl, 0.02% Tween 20) for 1 h at room temperature and incubated overnight at 4 °C with antibodies against phospho-IRE1α (Ser724) (Abcam, ab124945), IRE1α (Cell Signaling, 3294), or HSC70 (Santa Cruz, sc-7298), whose dilutions were 1:1000. […] Protein content was quantified by densitometry with ImageJ software (National Institutes of Health, Bethesda, MD).

[7] = test system: ERN1 (IRE1α); test: RT-qPCR ERN1 mRNA in HepaRG cells; assay type: cell-based, human; details: 4 days, vs control
How it was run: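 DNase-treated total RNA from HepaRG cells reverse-transcribed and quantified by SYBR Green RT-qPCR. Expression normalised to GAPDH and given as relative values by the 2^−ΔΔCt method.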

[8] = test system: fatty acid translocase (FAT, also known as CD36); test: RT-qPCR FAT/CD36 mRNA in HepaRG cells; assay type: cell-based, human; details: 4 days, vs control
Description: Total RNA was extracted with the Nucleospin RNA isolation system purchased from Macherey-Nagel (Düren, Germany), which included a DNase treatment step. Quantification of isolated RNAs was assessed using a Nanodrop 1000 (Thermo Fisher Scientific, Waltham, MA). RNAs were reverse-transcribed into cDNAs using the High-Capacity cDNA Reverse Transcription Kit purchased from Applied Biosystems (Woolston, UK). Gene expression was assessed by real-time quantitative PCR analysis (RT-qPCR) using SYBR Green PCR Master Mix (Applied Biosystems) and a 384-well QuantStudio™ 7 Flex Real-Time PCR System (Thermo Fisher Scientific). Sequences of the primers used to measure gene expression are presented in Supplementary Table 3. Expression of GAPDH was chosen as reference and the 2^−ΔΔCt calculation method was used to express the relative expression of each selected gene.

[9] = patients, ref given per drug, cited from earlier work; for Cmax: read-out: Maximum plasma concentration (Cmax) in patients

Row | Steatosis in PHH batches (six batches tested) [1] | Concentration corresponding to 100xCmax [5] [µM] | Structure (SMILES) | Effect on mtFAO [2] | Effect on apoC3 secretion [3] | EC20 values for inhibition of O2 consumption, Glutamate + malate [4] [µM] | EC20 values for inhibition of O2 consumption, Octanoyl-L-carnitine [4] [µM] | EC20 values for inhibition of O2 consumption, Palmitoyl-CoA + L-carnitine [4] [µM] | EC20 values for inhibition of O2 consumption, Palmitoyl-L-carnitine [4] [µM] | Protein level of phospho-IRE1α (pIRE1α) [6] | ERN1 (IRE1α) mRNA level [7] | FAT/CD36 mRNA level [8] | Maximum plasma concentration (Cmax) in patients [9] [mg/L] | Cmax [9] [µM] | EC20 for inhibition of O2 consumption, all substrates ([4]; all four substrates)
1 | steatotic in two PHH batches | 2200 | COc1ccc2c(c1)c(CC(=O)O)c(C)n2C(=O)c1ccc(Cl)cc1 [INDO, indomethacin] | inhibited this metabolic pathway and mild | reduced the secretion | 119 ± 20 | 150 ± 11 | 79 ± 8 | 163 ± 26 | increased protein level | enhanced IRE1α mRNA level | significantly augmented | ≤ 8 | ≤ 22 | –
2 | induced steatosis in only one PHH batch | 1900 | CO[C@H]1/C=C/O[C@@]2(C)Oc3c(C)c(O)c4c(O)c(c(/C=N/N5CCN(C)CC5)c(O)c4c3C2=O)NC(=O)/C(C)=C\C=C\[C@H](C)[C@H](O)[C@@H](C)[C@@H](O)[C@@H](C)[C@H](OC(C)=O)[C@@H]1C [RIF, rifampicin] | inhibited this metabolic pathway; also recorded: moderate | reduced the secretion | > 200 | > 200 | > 200 | > 200 | increased protein level | enhanced IRE1α mRNA level | this effect was not observed | ≤ 15.6 | ≤ 19 | above 200 μM
